Source: publication PMC9321663, “The DevTox Germ Layer Reporter Platform: An Assay Adaptation of the Human Pluripotent Stem Cell Test” (Toxics, 2022)
Like-named read-outs stand apart in the source and are kept apart here.

Assays:
[1] = tested on: SOX17 (endoderm marker) in RUES2-GLR cells; assay: DevTox GLR-Endo assay: decrease in percent SOX17-positive cells (AEID 3094, Sox17_dn); conditions: for AC50 / Emax / IC50: Homo sapiens; for effect on SOX17-positive cells (in words): 48 h exposure during directed endoderm differentiation; for % Max Inhibition: maximum inhibition of SOX17-positive cells, reference chemical testing
Protocol: (§1) The total test chemical incubation period was 48 h.
(§2) Assay plate controls included non-differentiated pluripotent cells maintained in complete Essential 8 Flex medium (baseline control), endoderm differentiated cells (differentiation control), endoderm differentiated cells treated with DMSO (0.2%) (solvent control), and TGF-ß receptor inhibitor SB431542 (1 µM)-treated cells (developmental toxicant-positive control) (Figure S3). All experiments were completed with a minimum of four biological replicates (n = 4).
(§3) (Supplementary Materials).

in vitro = conditions: human
Protocol: as §1, §2, §3

RUES2-GLR cells = assay: DevTox GLR-Endo assay: decrease in total cell count, cytotoxicity (AEID 3098, CellCount_dn); conditions: for Emax: Homo sapiens, read-out: Cell Count % Max Inhibition; for effect on cell counts (in words): reference chemical testing, increasing concentrations
Protocol: as §1, §2, §3

[2] = tested on: SOX17 (endoderm marker) in RUES2-GLR cells; assay: DevTox GLR-Endo assay: increase in percent SOX17-positive cells (AEID 3093, Sox17_up); format: cell-based, human; conditions: for Emax: Homo sapiens; for HIT−CALL: tcpl plot AEID3093, COFF 20.3
Protocol: as §1, §3

H9 human ESC line = conditions: cited from earlier work
[3] = cited from earlier work; for Development Toxicant Classification: Table S2; for Classification: developmental toxicant classification (Teratogen / Non-Teratogen) of reference and training chemicals, ref DOI per chemical: 10.1093/toxsci/kft239, 10.1093/toxsci/kfaa014, 10.1177/026119290203000204, 10.1038/s41598-020-59542-x; for DT Class.: developmental toxicant classification; for Developmental Toxicant Classification: reference chemicals
[4] = tested on: SOX2 (ectoderm and pluripotency marker) in RUES2-GLR cells; assay: DevTox GLR-Endo assay: increase in percent SOX2-positive cells (AEID 3095, Sox2_up); conditions: for AC50 / Emax: Homo sapiens; for AC50: read-out: ga (winning model); for Emax: read-out: tp (winning model); for MAX_MEAN: tcpl plot AEID3095, maximum mean response; for MAX_MED: tcpl plot AEID3095, maximum median response;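 for all read-outs here: cells exposed to test chemicals for 48 h in total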
[5] = tested on: BRA (mesoderm marker) in RUES2-GLR cells; assay: DevTox GLR-Endo assay: increase in percent BRA-positive cells (AEID 3096, Bra_up); format: cell-based, human; conditions: for HIT−CALL: tcpl plot AEID3096, COFF 0.774; for MAX_MEAN: tcpl plot AEID3096, maximum mean response; for MAX_MED: tcpl plot AEID3096, maximum median response
Protocol: as §1, §3

[6] = 48 h, read-out: DevTox-GLR Endo AC50 (µM), SOX17 half-maximal activity concentration, 48 h exposure
[7] = read-out: DevTox % Max Inhibition
[8] = read-out: ga (winning model), tcpl plot AEID3094, gain parameter of winning curve fit (log concentration, µM axis), hit calls only (converted)
[9] = Table S2, SOX17-positive cells, cutoff 3*bmad
[10] = tcpl plot AEID3093, maximum mean response, read-out: MAX_MEAN
[11] = tcpl plot AEID3093, maximum median response, read-out: MAX_MED
[12] = cytotoxicity half-maximal concentration
[13] = DevTox GLR-Endo prediction against developmental toxicant classification
[14] = Table S2, percent SOX17-positive cells, 48 h exposure
[15] = chemicals common with quickPredict
[16] = read-out: maximum observed effect level class (% max inhibition)

| SMILES | Emax [1, 7] [%] | Emax ([1]; read-out: MAX_MEAN) [%] | Emax ([1]; read-out: MAX_MED) [%] | AC50 [1, 8] [µM] | Emax ([1]; read-out: tp (winning model)) [%] | Hit Call [1, 9] | HIT−CALL ([1]; tcpl plot AEID3094, COFF 20.3) | Emax (RUES2-GLR cells) [%] | Emax [2, 10] [%] | Emax [2, 11] [%] | HIT−CALL [2] | Development Toxicant Classification [3] | Classification [3] | MAX_MEAN [4] [Percent Activity] | MAX_MED [4] [Percent Activity] | DevTox ACC [1, 14] [µM] | HIT−CALL [5] | MAX_MEAN [5] [Percent Activity] | MAX_MED [5] [Percent Activity] | DT Class. [3, 15] | other results |
| --- | --- | --- | --- | --- | --- | --- | --- | --- | --- | --- | --- | --- | --- | --- | --- | --- | --- | --- | --- | --- | --- |
| CN1CCN2c3ccccc3Cc3ccccc3C2C1 (stereo not shown) [Mianserin] | 101 | 101 | 101 | 34.7 | 122 | Positive | 1 | 97.7 | 2.7 | 3.98 | 0 | Positive | Teratogen | 4.94 | 5.45 |  |  |  |  |  | DevTox ACC ([1]; 48 h): 13.5618 µM; AC50 [1, 6]: 34.9 µM; CC50 at 48 h (in vitro): 33.6 µM; Cell Count ACC (RUES2-GLR cells; human, 48 h): 18.6008 µM; hPST TC50 (H9 human ESC line; [12]): 60 µM; hPST TC50 (H9 human ESC line; hPST cytotoxicity): 60 µM; DT Class. ([3]; chemicals common with hPST): Pos; AC50 [4]: 85.1 µM; Emax [4]: 13.7% |
| OB(O)O [Boric acid] |  |  |  |  |  | Negative | 0 |  |  |  | 0 |  | Teratogen | 0.45 | 0.453 | >200 | 0 | 0.818 | 0.83 | Pos | hit call designation (in words) [1, 13]: false negative; DevTox % Max Inhibition ([1]; Table S2, percent SOX17-positive cells relative to DMSO): 16.7249%; maximum observed effect level class (% max inhibition) ([1]; stratification of training set chemicals): weak (weak (0–20% max inhibition)); MAX_MEAN ([1]; tcpl plot AEID3094, maximum mean response): 15.7 Percent Activity; MAX_MED ([1]; tcpl plot AEID3094, maximum median response): 16.7 Percent Activity; Cell Count % Max Inhibition (RUES2-GLR cells; Table S2, cell count relative to DMSO): 12.3286%; MAX_MEAN ([2]; tcpl plot AEID3093, maximum mean response): 7.53 Percent Activity; MAX_MED ([2]; tcpl plot AEID3093, maximum median response): 7.06 Percent Activity |
| CC1=C2C[C@H]3[C@@H](CC=C4C[C@@H](O)CC[C@@]43C)[C@@H]2CC[C@]12O[C@@H]1C[C@H](C)CN[C@H]1[C@H]2C [Cyclopamine] | 22.7 | 34.8 | 22.7 |  |  | Negative | 0 | 9.2 |  |  | 0 | Positive | Teratogen | 5.31 | 0.885 | >200 | 1 | 4.76 | 1.9 | Pos | hit call designation (in words) [1, 13]: borderline calls; Emax [1, 16]: 20 to 80%; Cell Count ACC (RUES2-GLR cells; Table S2, 48 h exposure): >200 µM; Emax ([2]; read-out: MAX_MEAN): 3.34%; Emax ([2]; read-out: MAX_MED): 3.36%; HIT−CALL [4]: 0 |
| COc1cc2ncnc(Nc3ccc(F)c(Cl)c3)c2cc1OCCCN1CCOCC1 [Gefitinib] |  | 102 | 101 | 5.75 | 101 |  |  |  | 10.5 | 7.83 | 0 |  |  | 5.99 | 4.85 | 4.584 |  |  |  |  | AC50 [1, 6]: 5.75 µM; CC50 at 48 h (in vitro): 6.6 µM; Cell Count ACC (RUES2-GLR cells; human, 48 h): 5.08 µM; hPST TC50 (H9 human ESC line; [12]): 10 µM; hPST TC50 (H9 human ESC line; hPST cytotoxicity): 10 µM; AC50 [4]: 6.35 µM; Emax [4]: 3.17% |
| Nc1cccc2c1CN(C1CCC(=O)NC1=O)C2=O (stereo not shown) [Lenalidomide] | 78.9 | 78.8 | 78.9 | 0.337 | 79.2 | Positive | 1 | 44.2 | 10.3 | 9.38 | 0 | Positive | Teratogen | 0.674 | 0.697 | 0.05026 | 0 | 0.843 | 0.842 |  | effect on SOX17-positive cells (in words) [1]: significant reductions in the SOX17-positive sub-population; IC50 ([1]; 48 h): 130 nM; % Max Inhibition ([1]; 48 h exposure): 44%; Cell Count ACC (RUES2-GLR cells; Table S2, 48 h exposure): 0.1174 µM; effect on cell counts (in words) (RUES2-GLR cells): cell counts remained constant; Developmental Toxicant Classification [3]: Positive |
| CCCc1cc(=O)[nH]c(=S)[nH]1 | 16.6 | 14.7 | 16.6 |  |  | Negative | 0 | 12.9 | 7.44 | 8.97 | 0 |  | Teratogen | 0.595 | 0.601 | >200 | 1 | 0.944 | 0.969 | Pos | hit call designation (in words) [1, 13]: false negative; Emax [1, 16]: 0 to 20%; Cell Count ACC (RUES2-GLR cells; human, 48 h): >200 µM |
| O=P1(N(CCCl)CCCl)NCCCO1 (stereo not shown) [Cyclophosphamide] | 7.49 | 6.4 | 7.49 |  |  |  |  | 25.6 |  |  | 0 | Positive | Teratogen | 0.952 | 0.491 |  | 0 | 0.871 | 0.897 | Pos | DevTox ACC [1]: >200 µM; HIT−CALL [1]: 0; Hit Call [1]: Negative; hit call designation (in words) [1]: false negative; Emax [1, 16]: 0 to 20%; Cell Count ACC (RUES2-GLR cells; human): 100.193 µM; DevTox-GLR Endo CC (RUES2-GLR cells; human): 100.19 µM; effect on cell count (in words) (RUES2-GLR cells; human): significant cell loss that did not impact SOX17-positive populations; Emax ([2]; read-out: MAX_MEAN): 8.69%; Emax ([2]; read-out: MAX_MED): 8.98% |
| Nc1cccc2c1C(=O)N(C1CCC(=O)NC1=O)C2=O (stereo not shown) [Pomalidomide] | 95.9 | 95.3 | 95.9 | 0.0661 | 94 | Positive | 1 | 37.2 | 8.72 | 7.3 | 0 | Positive | Teratogen | 62.1 | 67.4 | 0.01911 | 0 | 0.865 | 0.894 |  | effect on SOX17-positive cells (in words) [1]: significant reductions in the SOX17-positive sub-population; IC50 ([1]; 48 h): 50 nM; % Max Inhibition ([1]; 48 h exposure): 81%; Cell Count ACC (RUES2-GLR cells; Table S2, 48 h exposure): 0.27 µM; effect on cell counts (in words) (RUES2-GLR cells): cell counts remained constant; Developmental Toxicant Classification [3]: Positive; AC50 [4]: 148 µM; Emax [4]: 88.9% |
| NNC(=O)c1ccncc1 [Isoniazid] | 3.99 | 3.77 | 3.99 |  |  | Negative | 0 | 7.42 | 14 | 13.9 | 0 | Negative | Non-Teratogen | 0.685 | 0.538 | >200 | 0 | 0.794 | 0.781 | Neg | Cell Count ACC (RUES2-GLR cells; human, 48 h): >200 µM |
